This note sets out measurements from EP4289427A1, “DIHYDRO[1,8]NAPHTHYRIDIN-7-ONE AND PYRIDO[3,2-B][1,4]OXAZIN-3-ONE FOR USE IN TREATING CANCER, AND METASTASES IN PARTICULAR” (Anagenesis Biotechnologies, priority 2022, dated 2023).

Each structure is given as a SMILES string. Some results are limits rather than exact numbers.

For one data set, the system named is HUVECs. Nature of the data set: Tube formation assay (anti-angiogenic activity). It is filed as cell-based, human. Particulars: for IC50: Homo sapiens, HUVEC. The text has this:
Angiogenesis is a phenomenon that includes different processes, such as endothelial cell proliferation, migration and differentiation that lead to the formation of new blood vessels. Tube formation assay is a standard in vitro test to assess angiogenesis: briefly, human Umbilical Vein Endothelial cells (hereafter "HUVECs") cultivated on a gelled basement matrix spontaneously proliferate, migrate and differentiate to form tube-like structures, that appear elongated and that connect to each other to form a network.
HUVECs were cultivated in Endothelial Cell Growth Medium (cat.no. C-22010 from Promocell) supplemented with 1% PenStrep (hereafter "HUVEC medium"). On day 0, HUVECs were harvested and transferred into a 384-well plate precoated with 10 µl/well of Cultrex UltiMatrix Reduced Growth factor basement membrane (cat.no. BME001-10 from BioTechne), according to the manufacturer's instructions, at a density of 5000 cells/well in HUVEC medium. Compounds to be tested were then added onto the cells and incubated for 16 to 18 hours at 37°C. After this incubation period, the cells were stained with calcein-AM (cat.no. 10462052 from Fisher Scientific) and pictures were acquired using a confocal fluorescent microscope (IXM from Molecular Devices). Tube formation was measured with MetaXpress® Software.

The next data set deals with EoL-1 cells. Nature of the data set: Cytotoxicity assay (CellTiter-Glo 2.0) on EoL-1 cells. It is filed as cell-based, Human. The conditions noted are these: incubation 1 day; for IC50: Homo sapiens, EOL1, 24 h. How it is done:
(§1) Cytotoxicity assays consist in treating cells with compounds and assessing remaining viability after a defined incubation time, depending on the cell line. CellTiter-Glo® 2.0 reagent allows viability measurement by quantification of ATP present, which is an indicator of metabolically active cells.
(§2) The cancer cell lines were cultivated in their respective growth medium (see tables 6a and 6b). On day 0 of the cytotoxicity assay, the cells were harvested and seeded into a 384-well plate at a defined density in their respective growth medium (see tables 6a and 6b). Compounds to be tested were then added onto the cells and incubated for a defined duration (see tables 6a and 6b). Following incubation, CellTiter-Glo® 2.0 reagent (cat.no. G9241 from Promega) was added into the wells (vol/vol, according to the manufacturer's recommendations), plates were gently shaken and incubated for 10 minutes in the dark at room temperature. Bioluminescence was then measured with a multimode plate reader (Victor Nivo from Perkin Elmer), and cell viability and relative IC50 were determined. Table 6a: Cancer cell characteristics, culture and cytotoxic assay conditions

Another data set concerns 4T1 cells. Nature of the data set: Cytotoxicity assay (CellTiter-Glo 2.0) on 4T1 cells. It is filed as cell-based, Mouse. Particulars: incubation 2 days; for IC50: Mus musculus, 48 h. How it is done:
as §1, §2

A further data set concerns RD cells. Nature of the data set: Cytotoxicity assay (CellTiter-Glo 2.0) on RD cells. Particulars: for IC50: Homo sapiens. It is filed as cell-based, Human. As to the method:
as §1, §2

In a further data set the test system is MDA-MB-231 cells. The experiment in a line: Cytotoxicity assay (CellTiter-Glo 2.0) on MDA-MB-231 cells. It is filed as cell-based, Human. The conditions noted are these: incubation 3 days; for IC50: Homo sapiens, 72 h. How it is done: as §1, §2

`CC(C)(C)c1cc(NC(=O)Nc2ccc(Oc3ccnc4c3OCC(=O)N4)cc2C(F)(F)F)n(-c2cccc(F)c2)n1` [Compound 014, 1-[5-tert-butyl-2-(3-fluorophenyl)pyrazol-3-yl]-3-[4-[(3-oxo-4H-pyrido[3,2-b][1,4]oxazin-8-yl)oxy]-2-(trifluoromethyl)phenyl]urea]: the 50% inhibitory concentration (IC50) with HUVECs (incubation 16 to 18 hours) is 100 to 500 nM; in the data set with EoL-1 cells, 10 to 100 nM; in the data set on 4T1 cells, 1000 to 5000 nM; in the data set with RD cells (48 h, 2 day-treatment), 5 to 10 µM; in the data set on RD cells (96 h, 4 day-treatment) it was at least 10 µM; with MDA-MB-231 cells, 1 to 5 µM. Moreover, the Angiogenesis inhibition entry with HUVECs (incubation 16 to 18 hours) was “+++ (angiogenesis inhibition ≥ 80%)”. Also, the Cytotoxicity result in the data set with EoL-1 cells is on record as “++ (50% ≤ cytotoxicity < 85%)”; with 4T1 cells it was “+++ (cytotoxicity ≥ 85%)”; with RD cells (2 day-treatment) it was “+ (20 % ≤ cytotoxicity < 50%)”; with RD cells (4 day-treatment) it was “+ (20 % ≤ cytotoxicity < 50%)”; in the data set on MDA-MB-231 cells, “+ (20 % ≤ cytotoxicity < 50%)”.

`CNC(=O)c1cc(Oc2ccc(NC(=O)Nc3ccc(Cl)c(C(F)(F)F)c3)cc2)ccn1` [Sorafenib, reference compound]: the IC50 in the data set with HUVECs (commercial kinase inhibitors) was under 100 nM; in the data set with EoL-1 cells (commercial kinase inhibitors), under 1 nM; in the data set on 4T1 cells (commercial kinase inhibitors), 5000 to 10000 nM; with RD cells (48 h, 2 day-treatment, commercial kinase inhibitors) it was at least 10 µM; in the data set with RD cells (96 h, 4 day-treatment, commercial kinase inhibitors), 5 to 10 µM; in the data set with MDA-MB-231 cells (commercial kinase inhibitors), 5 to 10 µM. Further, the Angiogenesis inhibition result with HUVECs (commercial kinase inhibitors) is “+ (50% > angiogenesis inhibition ≥ 20%)”. In addition, the Cytotoxicity result is “+++ (cytotoxicity ≥ 85%)” in the data set on EoL-1 cells (commercial kinase inhibitors); “+ (20 % ≤ cytotoxicity < 50 %)” in the data set with 4T1 cells (commercial kinase inhibitors); “++ (50 % ≤ cytotoxicity < 85 %)” in the data set on RD cells (2 day-treatment, commercial kinase inhibitors); “++ (50 % ≤ cytotoxicity < 85 %)” in the data set on RD cells (4 day-treatment, commercial kinase inhibitors); “+++ (cytotoxicity ≥ 85 %)” with MDA-MB-231 cells (commercial kinase inhibitors).

`CC(C)(C)c1cc(NC(=O)Nc2ccc(Oc3ccnc4c3CCC(=O)N4)cc2C(F)(F)F)n(-c2cccc(F)c2)n1` [Compound 015, 1-[5-tert-butyl-2-(3-fluorophenyl)pyrazol-3-yl]-3-[4-[(7-oxo-6,8-dihydro-5H-1,8-naphthyridin-4-yl)oxy]-2-(trifluoromethyl)phenyl]urea]: the IC50 is under 100 nM in the data set with HUVECs (incubation 16 to 18 hours); 10 to 100 nM with EoL-1 cells; under 1000 nM with 4T1 cells; 5 to 10 µM with RD cells (48 h, 2 day-treatment); 1 to 5 µM in the data set on RD cells (96 h, 4 day-treatment); 1 to 5 µM in the data set with MDA-MB-231 cells. Also, in the data set on HUVECs (incubation 16 to 18 hours), the Angiogenesis inhibition result was “+++ (angiogenesis inhibition ≥ 80%)”. The Cytotoxicity result in the data set with EoL-1 cells is given as “++ (50% ≤ cytotoxicity < 85%)”; in the data set with 4T1 cells, “+++ (cytotoxicity ≥ 85%)”; with RD cells (2 day-treatment), “++ (50% ≤ cytotoxicity < 85%)”; with RD cells (4 day-treatment), “++ (50% ≤ cytotoxicity < 85%)”; in the data set with MDA-MB-231 cells it was “++ (50% ≤ cytotoxicity < 85%)”.

For the compound `CSc1cc(Oc2ccnc3c2OCC(=O)N3)ccc1NC(=O)Nc1cc(C(C)(C)C)nn1-c1ccc(CCN2CCOCC2)cc1` [Compound 052, 1-[5-tert-butyl-2-[4-[2-(morpholino)ethyl]phenyl]pyrazol-3-yl]-3-[2-methylsulfanyl-4-[(3-oxo-4H-pyrido[3,2-b][1,4]oxazin-8-yl)oxy]phenyl]urea], the IC50 in the data set on HUVECs (incubation 16 to 18 hours) is under 100 nM; with EoL-1 cells, 1 to 10 nM; in the data set on 4T1 cells, under 1000 nM; in the data set with RD cells (48 h, 2 day-treatment), 1 to 5 µM; in the data set with RD cells (96 h, 4 day-treatment), 1 to 5 µM; in the data set on MDA-MB-231 cells, 1 to 5 µM. Also, the Angiogenesis inhibition result in the data set on HUVECs (incubation 16 to 18 hours) is given as “+++ (angiogenesis inhibition ≥ 80%)”. Further, the Cytotoxicity entry with EoL-1 cells is “+++ (cytotoxicity ≥ 85%)”; in the data set with 4T1 cells, “+++ (cytotoxicity ≥ 85%)”; in the data set with RD cells (2 day-treatment), “++ (50% ≤ cytotoxicity < 85%)”; with RD cells (4 day-treatment), “++ (50% ≤ cytotoxicity < 85%)”; in the data set on MDA-MB-231 cells it was “+++ (cytotoxicity ≥ 85%)”.

`CC(C)(C)c1cc(NC(=O)Nc2ccc(Oc3ccnc4c3CCC(=O)N4)cc2C(F)(F)F)n(-c2cccnc2)n1` [Compound 030, 1-[5-tert-butyl-2-(3-pyridyl)pyrazol-3-yl]-3-[4-[(7-oxo-6,8-dihydro-5H-1,8-naphthyridin-4-yl)oxy]-2-(trifluoromethyl)phenyl]urea]: the IC50 is under 100 nM with HUVECs (incubation 16 to 18 hours); 10 to 100 nM in the data set on EoL-1 cells; 1000 to 5000 nM in the data set on 4T1 cells; 5 to 10 µM in the data set on RD cells (48 h, 2 day-treatment); 5 to 10 µM in the data set on RD cells (96 h, 4 day-treatment); 1 to 5 µM in the data set on MDA-MB-231 cells. Besides, the Angiogenesis inhibition entry in the data set with HUVECs (incubation 16 to 18 hours) is listed as “+++ (angiogenesis inhibition ≥ 80%)”. Besides, the Cytotoxicity entry in the data set with EoL-1 cells is “++ (50% ≤ cytotoxicity < 85%)”; in the data set on 4T1 cells it was “+++ (cytotoxicity ≥ 85%)”; in the data set on RD cells (2 day-treatment), “++ (50% ≤ cytotoxicity < 85%)”; in the data set with RD cells (4 day-treatment), “++ (50% ≤ cytotoxicity < 85%)”; with MDA-MB-231 cells, “++ (50% ≤ cytotoxicity < 85%)”.

Take `CSc1cc(Oc2ccnc3c2CCC(=O)N3)ccc1NC(=O)Nc1cc(C(C)(C)C)on1` [Compound 026, 1-(5-tert-butylisoxazol-3-yl)-3-[2-methylsulfanyl-4-[(7-oxo-6,8-dihydro-5H-1,8-naphthyridin-4-yl)oxy]phenyl]urea]: the IC50 in the data set on HUVECs (incubation 16 to 18 hours) is 100 to 500 nM; in the data set with EoL-1 cells, under 1 nM; in the data set with 4T1 cells, 1000 to 5000 nM; with RD cells (48 h, 2 day-treatment) it was 1 to 5 µM; in the data set on RD cells (96 h, 4 day-treatment), 1 to 5 µM; with MDA-MB-231 cells, 1 to 5 µM. Moreover, the Angiogenesis inhibition entry in the data set on HUVECs (incubation 16 to 18 hours) is reported as “+++ (angiogenesis inhibition ≥ 80%)”. Besides, the Cytotoxicity result in the data set on EoL-1 cells is “+++ (cytotoxicity ≥ 85%)”; in the data set on 4T1 cells, “+++ (cytotoxicity ≥ 85%)”; with RD cells (2 day-treatment), “++ (50% ≤ cytotoxicity < 85%)”; with RD cells (4 day-treatment), “++ (50% ≤ cytotoxicity < 85%)”; in the data set with MDA-MB-231 cells, “++ (50% ≤ cytotoxicity < 85%)”.

`CN(C)Cc1cccc(-n2nc(C(C)(C)C)cc2NC(=O)Nc2ccc(Oc3ccnc4c3OCC(=O)N4)cc2C(F)(F)F)c1` [Compound 048, 1-[5-tert-butyl-2-[3-(dimethylaminomethyl)phenyl]pyrazol-3-yl]-3-[4-[(3-oxo-4H-pyrido[3,2-b][1,4]oxazin-8-yl)oxy]-2-(trifluoromethyl)phenyl]urea]: the 50% inhibitory concentration (IC50) in the data set with HUVECs (incubation 16 to 18 hours) is 100 to 500 nM; with EoL-1 cells, 1 to 10 nM; with 4T1 cells, 1000 to 5000 nM; in the data set with RD cells (48 h, 2 day-treatment) it was 5 to 10 µM; in the data set with RD cells (96 h, 4 day-treatment), 1 to 5 µM; with MDA-MB-231 cells, 1 to 5 µM. Also, the Angiogenesis inhibition entry in the data set with HUVECs (incubation 16 to 18 hours) was “+++ (angiogenesis inhibition ≥ 80%)”. For the same compound, the Cytotoxicity result in the data set with EoL-1 cells was “++ (50% ≤ cytotoxicity < 85%)”; in the data set on 4T1 cells, “+++ (cytotoxicity ≥ 85%)”; in the data set on RD cells (2 day-treatment), “++ (50% ≤ cytotoxicity < 85%)”; in the data set on RD cells (4 day-treatment), “+++ (cytotoxicity ≥ 85%)”; with MDA-MB-231 cells it was “++ (50% ≤ cytotoxicity < 85%)”.

With `CSc1cc(Oc2ccnc3c2CCC(=O)N3)ccc1NC(=O)Nc1cc(C(C)(C)C)nn1-c1cccc(CN(C)C)c1` [Compound 050, 1-[5-tert-butyl-2-[3-(dimethylaminomethyl)phenyl]pyrazol-3-yl]-3-[2-methylsulfanyl-4-[(7-oxo-6,8-dihydro-5H-1,8-naphthyridin-4-yl)oxy]phenyl]urea], the IC50 in the data set on HUVECs (incubation 16 to 18 hours) is under 100 nM; with EoL-1 cells, 1 to 10 nM; in the data set on 4T1 cells, under 1000 nM; with RD cells (48 h, 2 day-treatment) it was 1 to 5 µM; in the data set on RD cells (96 h, 4 day-treatment), 1 to 5 µM; with MDA-MB-231 cells, 1 to 5 µM. Also, the Angiogenesis inhibition entry with HUVECs (incubation 16 to 18 hours) was “+++ (angiogenesis inhibition ≥ 80%)”. Further, the Cytotoxicity result with EoL-1 cells, in the data set on 4T1 cells, in the data set on RD cells (2 day-treatment), in the data set with RD cells (4 day-treatment) and in the data set with MDA-MB-231 cells was “+++ (cytotoxicity ≥ 85%)” in each case.
